Assay results taken from patent US20250281457A1, “TREATMENT OR PREVENTION OF DENGUE VIRAL INFECTION” (Janssen Pharmaceuticals, Inc., priority 2022, published 2025).
Read-outs that look alike come from different tables or passages of the source.

Assay: Effect of food on plasma pharmacokinetics after single oral dose of SF2a/b (Example 2)
Format: in vivo, human
Conditions: for AUC(0-t) / AUC(0-inf) / Cmax / half-life / Tmax: both sexes, human, plasma, oral; for Tmax: read-out: tmax, Median
Method: The effect of food on the pharmacokinetics (PK) of Compound (a) was assessed in healthy participants after a single oral dose of SF2a/b, described in Example 1, administered at different dose levels in a randomized single dose, 2-period crossover study. The effect of food on the PK of Compound (a) was determined at 3 different dose levels (50 mg, 200 mg, and 800 mg) for a standardized breakfast; at one dose level (800 mg) for a high-fat, high-calorie breakfast; at two dose levels (200 mg and 800 mg) for a low-fat, low-calorie breakfast, as well as for a low-fat, high-calorie breakfast. 124 healthy adult participants (male and female, 18 to 55 years of age) were enrolled in this study. The volunteers were divided in six panels, which were organized as follows: • Panel […]: • Treatment D: A single 800-mg dose (4×200-mg tablets) of Compound (a) SF2b in fasted conditions. • Treatment E: A single 800-mg dose (4×200-mg tablets) of Compound (a) SF2b in fed conditions (standardized breakfast). • Treatments D and E (treatment sequence group 1 [n=8]: DE; treatment sequence group 2 [n=8]: ED). Panel 4, n=14: • Treatment F: A single 200-mg dose (1×200-mg tablet) of Compound (a) SF2b in fasted conditions. • Treatment G: A single 200-mg dose (1×200-mg tablet) of Compound (a) SF2b, in fed conditions (standardized breakfast). • Treatments F and G (treatment sequence group 1 [n=7]: FG; treatment sequence group 2 [n=7]: GF). Panel […]: • Treatment H: A single 50-mg dose (1×50-mg tablet) of Compound (a) SF2a in fasted conditions. • Treatment I: A single 50-mg dose (1×50-mg tablet) of Compound (a) SF2a in fed conditions (standardized breakfast). • Treatments H and I (treatment sequence group 1 [n=7]: HI; treatment sequence group 2 [n=7]: IH). Panel 6 (n=16): • Treatment J: single 800-mg dose (4×200-mg tablets) of Compound (a) administered as SF2b in fasted conditions. • Treatment K: single 800-mg dose (4×200-mg tablets) of Compound (a) administered as SF2b in fed conditions (high-fat, high-calorie breakfast). • Treatments J and K (treatment sequence group 1 [n=8]: JK; treatment sequence group 2 [n=8]: KJ). Panel 7 (n=32): • Treatment L: single 800-mg dose (4×200-mg tablets) of Compound (a) administered as SF2b in fed conditions (low-fat, low-calorie breakfast). • Treatment M: single 800-mg dose (4×200-mg tablets) of Compound (a) administered as SF2b in fed conditions (low-fat, high-calorie breakfast). • Treatment L (n=16) or Treatment M (n=16). Panel 8 (n=32): • Treatment N: single 200-mg dose (1×200-mg tablet) of Compound (a) administered as SF2b in fed conditions (low-fat, low-calorie breakfast). • Treatment O: single 200-mg dose (1×200-mg tablet) of Compound (a) administered as SF2b in fed conditions (low-fat, high-calorie breakfast). • Treatment N (n=16) or Treatment O (n=16). Tablets were administered orally, together with approximately 240 mL of non-carbonated water, in fasted or fed conditions. […] On day 1 of all treatments in each panel, the participants had fasted overnight for at least 10 hours before study drug intake. Intake of water was not allowed from 2 hours before and until 2 hours after study drug intake, except for the water used for study drug intake and breakfast. In case of intake in fed conditions, study drug was administered within 10 minutes after completing a standardized breakfast (Treatments E, G, and I), or a high-fat, high-calorie breakfast (Treatment K), a low-fat, low-calorie breakfast (Treatments L and N), or a low-fat, high-calorie breakfast (Treatments M and O). For treatments E, G, and I a standardized breakfast was served, consisting of (or its equivalent) 4 slices of bread, 2 slices of ham or cheese, butter, jelly, and 1 or 2 cups (up to 355 mL) of decaffeinated coffee or tea with milk and/or sugar, if desired (containing approximately: fat: 21 g, carbohydrates: 67 g, proteins: 19 g; total calories: 533 kcal). For treatment K in a high-fat, high-calorie breakfast was served. […]

[1] = 50 mg SF2a, standardized breakfast vs fasted
[2] = 200 mg SF2b, low-fat, high-calorie vs standardized breakfast
[3] = 200 mg SF2b, low-fat, low-calorie vs standardized breakfast
[4] = 200 mg SF2b, standardized breakfast vs fasted
[5] = 800 mg SF2b, high-fat, high-calorie breakfast vs fasted
[6] = 800 mg SF2b, low-fat, high-calorie vs standardized breakfast
[7] = 800 mg SF2b, low-fat, low-calorie vs standardized breakfast
[8] = 800 mg SF2b, standardized breakfast vs fasted

COc1cc(NC(C(=O)c2c[nH]c3ccc(OC(F)(F)F)cc23)c2ccc(Cl)cc2OC)cc(S(C)(=O)=O)c1 (centres unmarked) [Compound (a)]
AUClast, Geometric Mean Ratio Treatment I vs Treatment H [1]: 120.38% | AUC∞, Geometric Mean Ratio Treatment I vs Treatment H [1]: 121.24% | Cmax, Geometric Mean Ratio Treatment I vs Treatment H [1]: 132.83% | AUClast, Geometric Mean Ratio Treatment O vs Treatment G [2]: 66.47% | AUC∞, Geometric Mean Ratio Treatment O vs Treatment G [2]: 67.23% | Cmax, Geometric Mean Ratio Treatment O vs Treatment G [2]: 72.81% | AUClast, Geometric Mean Ratio Treatment N vs Treatment G [3]: 73.28% | AUC∞, Geometric Mean Ratio Treatment N vs Treatment G [3]: 73.61% | Cmax, Geometric Mean Ratio Treatment N vs Treatment G [3]: 72.54% | AUClast, Geometric Mean Ratio Treatment G vs Treatment F [4]: 168.45% | AUC∞, Geometric Mean Ratio Treatment G vs Treatment F [4]: 172.00% | Cmax, Geometric Mean Ratio Treatment G vs Treatment F [4]: 176.07% | AUClast, Geometric Mean Ratio Treatment K vs Treatment J [5]: 391.52% | AUC∞, Geometric Mean Ratio Treatment K vs Treatment J [5]: 384.08% | Cmax, Geometric Mean Ratio Treatment K vs Treatment J [5]: 409.01% | AUClast, Geometric Mean Ratio Treatment M vs Treatment E [6]: 65.27% | AUC∞, Geometric Mean Ratio Treatment M vs Treatment E [6]: 69.35% | Cmax, Geometric Mean Ratio Treatment M vs Treatment E [6]: 60.73% | AUClast, Geometric Mean Ratio Treatment L vs Treatment E [7]: 60.37% | AUC∞, Geometric Mean Ratio Treatment L vs Treatment E [7]: 64.71% | Cmax, Geometric Mean Ratio Treatment L vs Treatment E [7]: 60.56% | AUClast, Geometric Mean Ratio Treatment E vs Treatment D [8]: 241.23% | AUC∞, Geometric Mean Ratio Treatment E vs Treatment D [8]: 238.11% | Cmax, Geometric Mean Ratio Treatment E vs Treatment D [8]: 277.77% | relative bioavailability for AUClast, standardized breakfast compared to fasted (SF2a/b, 50 mg dose): 124% | relative bioavailability for Cmax, standardized breakfast compared to fasted (SF2a/b, 50 mg dose): 133% | relative bioavailability for AUClast, standardized breakfast compared to fasted (SF2a/b, 800 mg dose): 243% | relative bioavailability for Cmax, standardized breakfast compared to fasted (SF2a/b, 800 mg dose): 278% | exposure, high-fat, high-calorie breakfast compared to fasted conditions (SF2a/b, single dose 800 mg): approximately 4 times higher | tlast, Median (Treatment D: single 800 mg (SF2b), fasted): 840.00 h | tlast, Median (Treatment E: single 800 mg (SF2b), fed, standardized breakfast): 840.00 h | tlast, Median (Treatment F: single 200 mg (SF2b), fasted): 840.00 h | tlast, Median (Treatment G: single 200 mg (SF2b), fed, standardized breakfast): 840.00 h | tlast, Median (Treatment H: single 50 mg (SF2a), fasted): 840.00 h | tlast, Median (Treatment I: single 50 mg (SF2a), fed, standardized breakfast): 840.00 h | AUC(0-t) (50 mg, 50 mg SF2a, fasted, linear mixed effects model (Table 5C), read-out: AUClast, Geometric Mean Treatment H): 17900 ng·h/mL | AUC(0-inf) (50 mg, 50 mg SF2a, fasted, linear mixed effects model (Table 5C), read-out: AUC∞, Geometric Mean Treatment H): 18700 ng·h/mL | Cmax (50 mg, 50 mg SF2a, fasted, linear mixed effects model (Table 5C), read-out: Cmax, Geometric Mean Treatment H): 193 ng/mL | AUC(0-t) (50 mg, 50 mg SF2a, standardized breakfast, linear mixed effects model (Table 5C), read-out: AUClast, Geometric Mean Treatment I): 21600 ng·h/mL | AUC(0-inf) (50 mg, 50 mg SF2a, standardized breakfast, linear mixed effects model (Table 5C), read-out: AUC∞, Geometric Mean Treatment I): 22700 ng·h/mL | Cmax (50 mg, 50 mg SF2a, standardized breakfast, linear mixed effects model (Table 5C), read-out: Cmax, Geometric Mean Treatment I): 257 ng/mL | AUC(0-t) (50 mg, Treatment H: single 50 mg (SF2a), fasted, read-out: AUClast, Geo. Mean): 18000 ng·h/mL | AUC(0-t) (50 mg, Treatment H: single 50 mg (SF2a), fasted, read-out: AUClast, Mean): 19900 ng·h/mL | AUC(0-t) (50 mg, Treatment H: single 50 mg (SF2a), fasted, read-out: AUClast, Median): 18500 ng·h/mL | AUC(0-inf) (50 mg, Treatment H: single 50 mg (SF2a), fasted, read-out: AUC∞, Geo. Mean): 18800 ng·h/mL | AUC(0-inf) (50 mg, Treatment H: single 50 mg (SF2a), fasted, read-out: AUC∞, Mean): 21000 ng·h/mL | AUC(0-inf) (50 mg, Treatment H: single 50 mg (SF2a), fasted, read-out: AUC∞, Median): 18800 ng·h/mL | Cmax (50 mg, Treatment H: single 50 mg (SF2a), fasted, read-out: Cmax, Geo. Mean): 195 ng/mL | Cmax (50 mg, Treatment H: single 50 mg (SF2a), fasted, read-out: Cmax, Mean): 214 ng/mL | Cmax (50 mg, Treatment H: single 50 mg (SF2a), fasted, read-out: Cmax, Median): 208 ng/mL | half-life (50 mg, Treatment H: single 50 mg (SF2a), fasted, read-out: t1/2, term, Geo. Mean (converted)): 167 h | half-life (50 mg, Treatment H: single 50 mg (SF2a), fasted, read-out: t1/2, term, Mean (converted)): 176 h | half-life (50 mg, Treatment H: single 50 mg (SF2a), fasted, read-out: t1/2, term, Median (converted)): 162 h | Tmax (50 mg, Treatment H: single 50 mg (SF2a), fasted): 7 h | AUC(0-t) (50 mg, Treatment I: single 50 mg (SF2a), fed, standardized breakfast, read-out: AUClast, Geo. Mean): 21100 ng·h/mL | AUC(0-t) (50 mg, Treatment I: single 50 mg (SF2a), fed, standardized breakfast, read-out: AUClast, Mean): 22900 ng·h/mL | AUC(0-t) (50 mg, Treatment I: single 50 mg (SF2a), fed, standardized breakfast, read-out: AUClast, Median): 20400 ng·h/mL | AUC(0-inf) (50 mg, Treatment I: single 50 mg (SF2a), fed, standardized breakfast, read-out: AUC∞, Geo. Mean): 22100 ng·h/mL | AUC(0-inf) (50 mg, Treatment I: single 50 mg (SF2a), fed, standardized breakfast, read-out: AUC∞, Mean): 24600 ng·h/mL | AUC(0-inf) (50 mg, Treatment I: single 50 mg (SF2a), fed, standardized breakfast, read-out: AUC∞, Median): 20800 ng·h/mL | Cmax (50 mg, Treatment I: single 50 mg (SF2a), fed, standardized breakfast, read-out: Cmax, Geo. Mean): 257 ng/mL | Cmax (50 mg, Treatment I: single 50 mg (SF2a), fed, standardized breakfast, read-out: Cmax, Mean): 288 ng/mL | Cmax (50 mg, Treatment I: single 50 mg (SF2a), fed, standardized breakfast, read-out: Cmax, Median): 267 ng/mL | half-life (50 mg, Treatment I: single 50 mg (SF2a), fed, standardized breakfast, read-out: t1/2, term, Geo. Mean (converted)): 174 h | half-life (50 mg, Treatment I: single 50 mg (SF2a), fed, standardized breakfast, read-out: t1/2, term, Mean (converted)): 185 h | half-life (50 mg, Treatment I: single 50 mg (SF2a), fed, standardized breakfast, read-out: t1/2, term, Median (converted)): 159 h | Tmax (50 mg, Treatment I: single 50 mg (SF2a), fed, standardized breakfast): 6.5 h | AUC(0-t) (200 mg, 200 mg SF2b, fasted, linear mixed effects model (Table 5B), read-out: AUClast, Geometric Mean Treatment F): 60500 ng·h/mL | AUC(0-inf) (200 mg, 200 mg SF2b, fasted, linear mixed effects model (Table 5B), read-out: AUC∞, Geometric Mean Treatment F): 60500 ng·h/mL | Cmax (200 mg, 200 mg SF2b, fasted, linear mixed effects model (Table 5B), read-out: Cmax, Geometric Mean Treatment F): 559 ng/mL | AUC(0-t) (200 mg, 200 mg SF2b, fed, low-fat, high-calorie breakfast, read-out: AUClast, Geometric LS Means Treatment O): 65200 ng·h/mL | AUC(0-inf) (200 mg, 200 mg SF2b, fed, low-fat, high-calorie breakfast, read-out: AUC∞, Geometric LS Means Treatment O): 69300 ng·h/mL | Cmax (200 mg, 200 mg SF2b, fed, low-fat, high-calorie breakfast, read-out: Cmax, Geometric LS Means Treatment O): 700 ng/mL | AUC(0-t) (200 mg, 200 mg SF2b, fed, low-fat, low-calorie breakfast, read-out: AUClast, Geometric LS Means Treatment N): 71900 ng·h/mL | AUC(0-inf) (200 mg, 200 mg SF2b, fed, low-fat, low-calorie breakfast, read-out: AUC∞, Geometric LS Means Treatment N): 75800 ng·h/mL | Cmax (200 mg, 200 mg SF2b, fed, low-fat, low-calorie breakfast, read-out: Cmax, Geometric LS Means Treatment N): 697 ng/mL | AUC(0-t) (200 mg, 200 mg SF2b, fed, standardized breakfast (Tables 5E, 5G), read-out: AUClast, Geometric LS Means Treatment G): 98200 ng·h/mL
